In patent US20040220164A1, “Triaza compound immunoregulatory agents” (priority 2001, published 2004):
In brackets after ≈: the same amount, converted by molar mass. Where two headings read alike, the source gives them in different places.

Experiments:
HIV-1 strain NL4.3 = experiment: Anti-HIV-1 assay in MT-4 cells (p24 Ag ELISA, Example 3); format: cell-based; settings: Human immunodeficiency virus 1, MT4; MT-4 cells; read-out: IC50 HIV-1 (NL4.3), p24 Ag ELISA
Protocol: Antiviral Assays. For HIV-1, MT-4 cells were infected with the HIV-1 strain NL4.3. Briefly, five-fold dilutions of the compounds (in 100 μl) were added to 96-well flat bottom plates (Iwaki, Japan). Then, to each well, 7.5×10^4 MT-4 cells were added in 50 μl medium, followed by 50 μl of diluted HIV-1 stock (strain NL4.3). Cytopathic effect (CPE) induced by the virus was checked regularly microscopically. When strong CPE was observed (after 3 to 5 days of incubation) in untreated HIV-1 infected cells, the supernatant was collected, stored at −20° C. and analyzed for HIV-1 core antigen by p24 Ag ELISA (NEN™, PerkinElmer Life Sciences, Boston, Mass.). Finally, the IC50 value of the compounds (i.e., the concentration of the compound required for 50% reduction of HIV infection as measured by viral p24 antigen level in the supernatant of infected MT-4 cells) was calculated.

HHV-7 (KHR strain) = experiment: Anti-HHV-7 assay in SupT1 cells (antigen expression, flow cytometry, Example 3); format: cell-based; settings: SUP-T1; SupT1 cells; read-out: IC50 HHV-7 (50% reduction of HHV-7 antigen expression)
Protocol: For HHV-7, five-fold dilutions of the compounds were added in 500 μl culture medium in 24-well flat bottom plates (Iwaki, Japan), whereupon 2×10^5 SupT1 cells were added in 400 μl culture medium. After 30 min incubation at room temperature, 100 μl of HHV-7 stock was added to each well. HHV-7-infected and mock-infected SupT1 cells were cultured in a final volume of 1 ml medium in the absence of the compounds. On day 4, half of the medium and the cells were replaced and fresh medium without new compound was added. This procedure was repeated every 2 or 3 days. The CPE was checked regularly microscopically. When CPE was observed, the HHV-7 antigen expression was monitored by flow cytometry, as described previously (Zhang, Y. et al. (1999) “Selective activity of various antiviral compounds against HHV-7 infection Antiviral Res. 43, 23-35.)

CD4 [1] = target: T1, CD4 (Homo sapiens, UniProt P01730); experiment: Cell surface CD4 expression by flow cytometry (anti-CD4 mAb Leu3a-PE); format: cell-based; design: To study the effect of the CADA derivatives on surface CD4 antigen expression, MT-4 and SupT1 cells were incubated; endogenous in cells; host or cells: MT-4, SupT1, PBMC
Protocol: FIGS. 2A-2C. Surface CD4 expression in MT-4 cell line, SupT1 cell line and PBMCs after incubation with CADA hydrochloride (3.2 or 16 μM) for 1 and 4 days. (A) Cell surface CD4 expression of control MT-4 cells and MT-4 cells treated with CADA (3.2 μM) for 1 day or 4 days. (B) Cell surface CD4 expression of control SupT1 cells and SupT1 cells treated with CADA (3.2 μM) for 1 day or 4 days. (C) Cell surface CD4 expression of control PBMCs and PBMCs treated with CADA (16 μM) for 1 day or 4 days. The cells were stained with anti-CD4 mAb (Leu3a-PE). Percentages of fluorescent cells and MFI (mean fluorescence intensity) are indicated in each histogram.
FIG. 4. Comparison of the effects on CD4 modulation by ATA (24 μM), CADA hydrochloride (16 μM) and PMA (8 nM) in SupT1 cells after incubation with the compounds analyzed after 20 minutes, 4 hours, 1 day and 4 days.
Cells were incubated with CADA hydrochloride and the CD4 expression on the cell surface was analyzed. […] In peripheral blood mononuclear cells (PBMCs), the percentage of CD4 expression decreased to 0.2% after incubation with CADA (16 μM) for 4 days (FIG. 2).
Expression of various other surface antigens was also examined in MT-4 cells, SupT1 cells and PBMCs after incubation with CADA (16 μM) or CADA-free medium at 37° C. for 4 days. After washing with phosphate-buffered saline (PBS) containing 2% FCS(fetal calf serum), the cells were incubated with mAb (as indicated in Table 1) for 20 min at 4° C. Then the cells were washed, fixed with 1% formaldehyde and analyzed by flow cytometry. All mAbs were purchased from Becton-Dickinson (Erembodegem, Belgium).
CADA was compared with ATA and PMA with regard to their down-modulating effects. […] At day 4, the CD4 expression in SupT1 cells treated with CADA reduced to 1.2%.

CD4 [2] = target: T1, CD4; experiment: CD4 down-modulation, flow cytometry with FITC-conjugated anti-CD4 (SK3) mAb, MT-4 cells; format: cell-based; design: To study the effect of the CADA derivatives on surface CD4 antigen expression, MT-4 and SupT1 cells were incubated; endogenous in cells; host or cells: MT-4, SupT1, PBMC; settings: for IC50: MT-4 cells, day 3, read-out: IC50 CD4 (50% inhibition of extracellular CD4 expression) (converted); for CD4 down-modulating activity compared with CADA or parent analog (in words): structure-activity discussion of Table 5 (MT-4 and SupT1 cells); for CD4 down-modulating activity, fold less active than CADA: compared to CADA, MT-4 cells (stated for some compounds)
Protocol: Flow Cytometric Analyses. To study the effect of the CADA derivatives on surface CD4 antigen expression, MT-4 and SupT1 cells were incubated with a serial 5-fold dilution of the compounds (50, 10, 2, 0.4 and 0.08 μg/ml) or medium at 37° C. […] Briefly, after washing with phosphate-buffered saline (PBS) containing 2% fetal calf serum (FCS), cells were incubated with FITC-conjugated anti-CD4 (SK3) mAb for 30 min at 4° C. As a negative control for a specific background staining, cells were stained in parallel with Simultest Control γ1/γ^2a (Becton Dickinson). Then the cells were washed, fixed with 1% formaldehyde and analyzed by flow cytometry in a FACScalibur (Becton Dickinson, San Jose, Calif., USA). Data were acquired and analyzed with CellQuest software (Becton Dickinson). For the calculation of the CD4 receptor expression, the mean fluorescence intensity (MFI) of each sample was expressed as percentage of the MFI of control cells (after subtracting the MFI of the isotype control). Finally, the IC50 value of the compounds (i.e., the concentration of the compound required for 50% inhibition of extracellular CD4 expression) was calculated.

CD4 [3] = target: T1, CD4; experiment: CD4 down-modulation, flow cytometry with FITC-conjugated anti-CD4 (SK3) mAb, SupT1 cells; format: cell-based; design: To study the effect of the CADA derivatives on surface CD4 antigen expression, MT-4 and SupT1 cells were incubated; endogenous in cells; host or cells: MT-4, SupT1, PBMC; settings: for IC50: day 4, read-out: IC50 CD4 (50% inhibition of extracellular CD4 expression) (converted)
Protocol: Flow Cytometric Analyses. To study the effect of the CADA derivatives on surface CD4 antigen expression, MT-4 and SupT1 cells were incubated with a serial 5-fold dilution of the compounds (50, 10, 2, 0.4 and 0.08 μg/ml) or medium at 37° C. Cell surface CD4 antigen expression was analyzed at day 3 (MT-4) or day 4 (SupT1). Briefly, after washing with phosphate-buffered saline (PBS) containing 2% fetal calf serum (FCS), cells were incubated with FITC-conjugated anti-CD4 (SK3) mAb for 30 min at 4° C. As a negative control for a specific background staining, cells were stained in parallel with Simultest Control γ1/γ^2a (Becton Dickinson). Then the cells were washed, fixed with 1% formaldehyde and analyzed by flow cytometry in a FACScalibur (Becton Dickinson, San Jose, Calif., USA). Data were acquired and analyzed with CellQuest software (Becton Dickinson). For the calculation of the CD4 receptor expression, the mean fluorescence intensity (MFI) of each sample was expressed as percentage of the MFI of control cells (after subtracting the MFI of the isotype control). Finally, the IC50 value of the compounds (i.e., the concentration of the compound required for 50% inhibition of extracellular CD4 expression) was calculated.

[4] = Cytotoxicity assay (trypan blue exclusion, propidium iodide); format: cell-based, human; settings: human, read-out: CC50 (50% cytotoxic concentration)
Protocol: Cytotoxicity Assay. Cellular toxicity of the compounds was measured by trypan blue exclusion and also by Propidium Iodide by flow cytometry after 3 or 4 days of incubation, in parallel with the CD4 antigen expression. The CC50 value of each CADA analog is the concentration (in μg/ml) required to reduce the viability of the cells by 50%.

Compound | IC50 (HIV-1 strain NL4.3) [mg/L] | IC50 (HHV-7 (KHR strain)) [mg/L] | down-regulation of CD4 expression (in words) (CD4 [1]) | IC50 (CD4 [2]) [µM] | CD4 down-modulating activity compared with CADA or parent analog (in words) (CD4 [2]) | IC50 (CD4 [3]) [µM] | CC50 ([4]; MT-4 cells) [mg/L] | CC50 ([4]; SupT1 cells) [mg/L] | CD4 down-modulating activity, fold less active than CADA (CD4 [2]) [fold] | CD4 down-regulation (in words) (CD4 [3]) | CD4 down-regulating activity, fold less active than QJ036 (CD4 [2]; compared to QJ036) [fold]
C=C1CN(S(=O)(=O)c2ccc(C)cc2)CCCN(CC2CC=CCC2)CCCN(S(=O)(=O)c2ccc(C)cc2)C1 (stereo not drawn) [QJ023] | 0.29 (≈ 0.495 µM) | 0.1 (≈ 0.171 µM) | down-regulate CD4 expression | 0.444 | slightly enhanced | 0.615 | 22.2 (≈ 37.9 µM) | 28.9 (≈ 49.3 µM) |  |  | 
C=C1CN(S(=O)(=O)c2ccc(C)cc2)CCCN(CCC)CCCN(S(=O)(=O)c2ccc(C)cc2)C1 [QJ029] | 2 (≈ 3.75 µM) | 0.91 (≈ 1.7 µM) | down-regulate CD4 expression | 4.83 | somewhat in between | 5.73 | 20.7 (≈ 38.8 µM) | 22.2 (≈ 41.6 µM) |  |  | 
C=C1CN(S(=O)(=O)c2ccc(C)cc2)CCCN(Cc2ccncc2)CCCN(S(=O)(=O)c2ccc(C)cc2)C1 [QJ030] | 2.36 (≈ 4.05 µM) | 1.59 (≈ 2.73 µM) | down-regulate CD4 expression | 4.41 |  | 12.4 | 21.3 (≈ 36.5 µM) | > 50 | 9 |  | 
C=C1CN(S(=O)(=O)c2ccc(C)cc2)CCCN(C(C)C)CCCN(S(=O)(=O)c2ccc(C)cc2)C1 [QJ035] | 5.55 (≈ 10.4 µM) | 1.4 (≈ 2.62 µM) | down-regulate CD4 expression | 11.4 |  | > 18.7 | 22.2 (≈ 41.6 µM) | 23 (≈ 43.1 µM) | 17 | not active | 
C=C1CN(S(=O)(=O)c2ccc(Br)cc2)CCCN(Cc2ccccc2)CCCN(S(=O)(=O)c2ccc(Br)cc2)C1 [AS-PB127] | 1.4 (≈ 1.97 µM) | 0.88 (≈ 1.24 µM) |  | 1.98 |  | 2.49 | 35.7 (≈ 50.2 µM) | > 50 | 4 |  | 
C=C1CN(S(=O)(=O)c2ccc(C)cc2)CCCN(CC(C)C)CCCN(S(=O)(=O)c2ccc(C)cc2)C1 [Compound 98-035] | 4.82 (≈ 8.8 µM) | 0.7 (≈ 1.28 µM) |  | 8.78 |  | 9.73 | > 50 | > 50 |  |  | 4
Cc1ccc(S(=O)(=O)N2CCCN(Cc3ccccc3)CCCN(S(=O)(=O)c3ccc(C)cc3)CC(=O)C2)cc1 [MFS010] | > 10 | 4.43 (≈ 7.59 µM) |  | > 17.1 | significantly decreased | > 85.6 | 29.3 (≈ 50.2 µM) | > 50 |  |  | 
C=C1CN(S(=O)(=O)c2ccc(C)cc2)CCCN(C(=O)OCC)CCCN(S(=O)(=O)c2ccc(C)cc2)C1 [Compound 95-213] | 8.05 (≈ 14.3 µM) | 0.68 (≈ 1.21 µM) |  | 11.5 |  | 17.1 | > 50 | > 50 |  |  | 
Cc1ccc(S(=O)(=O)N2CCCN(S(=O)(=O)c3ccc(C)cc3)CC(C)(O)CN(S(=O)(=O)c3ccc(C)cc3)CCC2)cc1 [HJC241] | > 10 | 1.09 (≈ 1.64 µM) |  | 2.86 |  | > 75.3 | 32 (≈ 48.2 µM) | > 50 |  |  | 
